Experimental data reported in the NIST ThermoML archive (doi:10.1021/je100069q).
± gives the expanded uncertainty stated by the source.

Details: 101.33 kPa, Liquid

SMILES	mass density (313.15 K) [kg/m3]	mass density (293.15 K) [kg/m3]	other results
CCc1ccccc1 [ethylbenzene]			mass density (298.15 K): 862.59 ± 0.3 kg/m3
Cc1cccc(O)c1 [3-methylphenol]		1033.85 ± 0.28	
Cc1ccccc1 [toluene]		866.78 ± 0.31	
Cc1ccccc1O [2-methylphenol]			mass density (308.15 K): 1032.73 ± 0.61 kg/m3

Further lines, with some results ahead:

mass density (313.15 K) [kg/m3]	SMILES	mass density (293.15 K) [kg/m3]	other results
1018.8 ± 0.27	Cc1ccc(O)cc1 [4-methylphenol]		
1058.3 ± 0.35	Oc1ccccc1 [phenol]		
